Patent US20070219162A1, “Partially-fluorinated ethers, compositions and uses thereof, for long-term tamponade in the eye” (THE TRUSTEES OF COLUMBIA UNIVERSITY IN THE CITY OF NEW YORK, priority 2004, published 2007)

Key:
[1] = Tamponade force calculated from specific gravity difference to fluid vitreous; type: physicochemical; design: unit not given beside the values; settings: difference in specific gravity to fluid vitreous (1.03) multiplied by volume of tamponade agent (5 mL)
[2] = Water insolubility (single drop in one liter of water); type: physicochemical; settings: single drop (about 50 ppm) added to one liter of water
Procedure: (§1) DFPE liquid is stable. […] Further, a mixture of DFPE in silicone (20% DFPE (w/w) and 80% silicone (w/w)) is stable through daily temperature cycling (20-40° C.) through at least 18 months. Further with respect to water insolubility, a single drop of DFPE (about 50 ppm) added to one liter of water remains visible, unchanged and undissolved for long periods of time (at least greater than 8 months).

eye [3] = settings: in vivo
Text: FIG. 4 and FIG. 5 show results indicating the long term biocompatibility of the eye to decafluoro-di-n-pentyl ether. […] Thus, the above characteristics, combined with the specific-gravity characteristics of the partially fluorinated ethers of formula (I), allow for their long-term use in the eye without damage, and with improved efficacy, convenience and biocompatibility. […] The invention contemplates the use of liquid tamponade agents comprising partially fluorinated ethers according to formula (I) for postoperative periods such as: hours, days, weeks, 1 month, 2 months, 3 months, greater than 3 months, greater than 6 months, up to 1 year, up to 2 years or more. Period greater than 1 year are not generally required for tamponade.

[4] = type: physicochemical
Text: Soluble Mixtures of Partially Fluorinated Ethers. The presence of the hydrocarbon chain in the structure of formula (I) has a large effect on the solubility properties of the molecule. The partially fluorinated ethers of formula (I) are completely miscible with certain perfluorocarbons, such as perfluoro-n-octane (“PFnO”) (C8F18), perfluoroethylcyclohexane (C8F16), perfluorodecalin (C10F18), and perfluorophenanthrene (C14F24). The solubility of formula (I) liquids with perfluorocarbons enables the design of soluble mixtures that can be used as long-term postoperative tamponade agents that have a specific gravity less than 1.6 or 1.5 such that the probability of retinal damage due to weight is reduced. For example, the commonly used intraoperative perfluorocarbon, PFnO, has a specific gravity of about 1.7. Thus, in order to make a soluble mixture of PFnO and DFPE (which has a specific gravity of about 1.3) that has a specific gravity less than 1.6 or 1.5, then one can use a greater amount of DFPE to reduce the specific gravity of the soluble mixture. For example, a mixture comprising about 25% PFnO and about 75% DFPE has a specific gravity of 1.39 at body temperature (see Table 1). […]

[5] = type: physicochemical; remark: listed apart in the source
Procedure: as §1

eye [6] = experiment: Gas chromatography of DFPE recovered from the eye; type: in vivo; settings: after one month of residence time in the eye
[7] = Specific gravity of tamponading agents; type: physicochemical
Text: Soluble Mixtures of Partially Fluorinated Ethers. The presence of the hydrocarbon chain in the structure of formula (I) has a large effect on the solubility properties of the molecule. The partially fluorinated ethers of formula (I) are completely miscible with certain perfluorocarbons, such as perfluoro-n-octane (“PFnO”) (C8F18), perfluoroethylcyclohexane (C8F16), perfluorodecalin (C10F18), and perfluorophenanthrene (C14F24). The solubility of formula (I) liquids with perfluorocarbons enables the design of soluble mixtures that can be used as long-term postoperative tamponade agents that have a specific gravity less than 1.6 or 1.5 such that the probability of retinal damage due to weight is reduced. For example, the commonly used intraoperative perfluorocarbon, PFnO, has a specific gravity of about 1.7. Thus, in order to make a soluble mixture of PFnO and DFPE (which has a specific gravity of about 1.3) that has a specific gravity less than 1.6 or 1.5, then one can use a greater amount of DFPE to reduce the specific gravity of the soluble mixture. For example, a mixture comprising about 25% PFnO and about 75% DFPE has a specific gravity of 1.39 at body temperature (see Table 1). This general strategy of mixing lighter partially fluorinated ether liquids with perfluorocarbon liquids can be conducted with any of the formula (I) liquids and a perfluorocarbon liquid, as long as they are miscible. Further, one can also make soluble mixtures between different partially fluorinated ethers in order to obtain a liquid tamponade agent that has a preferred specific gravity.
Further, one can use the strategy of mixing partially fluorinated ether liquids of formula (I) with lighter tamponade liquids, such as silicone, in order to resolve buoyancy problems and to increase tamponade force. As described previously, because silicone liquids are lighter than water and are immiscible in water, silicone liquids form a globule that rises above aqueous solutions. To rectify this problem, partially fluorinated ether liquids can be mixed with silicone liquids and oils such that soluble mixture has a specific gravity greater than 1.0. In one embodiment, partially fluorinated ether and silicone solutions have a specific gravity between about 1.00 and about 1.06. For example, DFPE can be mixed with silicone oil (such as dimethyl siloxane) and be soluble in silicone oil up to about 20% DFPE (weight to weight (w/w)). Thus, the invention contemplates DFPE and silicone mixtures where DFPE comprises between about 10% and about 20% of the solution and where silicone comprises between about 90% and about 80% of the solution. In one embodiment, a soluble mixture comprises between about 15% and about 18% (w/w) DFPE and between about 85% and about 82% (w/w) silicone oil. In another embodiment, a soluble mixture of about 18% (w/w) DFPE and about 82% (w/w) silicone oil has a specific gravity of about 1.02 at 37° C. In another embodiment, a soluble mixture of about 20% (w/w) DFPE and about 80% (w/w) silicone oil has a specific gravity of about 1.02-1.03. Perfluorocarbon liquids cannot be easily mixed with silicone liquids because perfluorocarbon liquids, not having any hydrocarbons, are only soluble up to less than about 1000 ppm with silicone.

[8] = Refractive index of tamponading agents; type: physicochemical; settings: Table 1
[9] = Boiling point of tamponading agents; settings: Table 1
[10] = Viscosity of tamponading agents; type: physicochemical
[11] = approximate, no temperature stated

Row | time a single drop remains visible, unchanged and undissolved in water [2] | amplitudes of electroretinographic responses (eye [3]) | implicit times of electroretinographic responses (eye [3]) | solubility in silicone oil [4] | stability to sunlight exposure [5] | stable over time ([5]; ambient temperature) | stable when exposed to heat ([5]; heat exposure) | changes in composition of DFPE recovered from the eye (eye [6]) | Specific Gravity ([7]; at body temperature) | SMILES | Tamponade Force [1] | Specific Gravity ([7]; Table 1) | Specific Gravity [7, 11] | Refractive Index [8] | Boiling Point [9] | Viscosity (centistrokes at 25° C.) [10]
1 | greater than 8 months | does not exhibit any negative effects | does not exhibit any negative effects | up to 20 % (w/w) | stable to sunlight exposure | at least 2 years | up to 95 °C | less than 0.05% | 1.31 | FC(F)(F)C(F)(F)CCCOCCCC(F)(F)C(F)(F)F [DFPE, decafluoro-di-n-pentyl ether] | 1.4 | 1.31 | about 1.3 |  |  | 
2 |  |  |  |  |  |  |  |  |  | Fc1c(F)c(F)c2c(c1F)c(F)c(F)c1c(F)c(F)c(F)c(F)c12 [Perfluorophenanthrene, perfluorophenanthrene] | 5.0 | 2.03 |  | 1.28 | 215 °C | 8.03 centistrokes
3 |  |  |  |  |  |  |  |  |  | FC(F)(F)C(F)(F)C(F)(F)C(F)(F)C(F)(F)C(F)(F)C(F)(F)C(F)(F)F [PFnO, perfluoro-n-octane] | 3.65 | 1.76 | about 1.7 | 1.27 | 105 °C | 0.8 centistrokes
4 |  |  |  |  |  |  |  |  |  | FC1(F)C(F)(F)C(F)(F)C2(F)C(F)(F)C(F)(F)C(F)(F)C(F)(F)C2(F)C1(F)F (stereo not shown) [Perfluorodecalin, perfluorodecalin] | 4.55 | 1.94 |  | 1.31 | 177 °C | 2.7 centistrokes
